Experimental data taken from patent publication US20110045101A1, “FUNGICIDAL SUBSTITUTED AZOLES” (E.I. Du Pont De Nemours and Company, priority 2009, published 2011).
Read-outs that look alike come from different tables or passages of the source.

Key:
Type in all cases: in vivo
[1] = test system: Phytophthora infestans; conditions: 200 ppm, 100 = 100% disease control
[2] = test system: Puccinia recondita f. sp. tritici; test: Test I: wheat leaf rust on wheat seedlings, sprayed the day before inoculation, visual disease rating; conditions: 200 ppm, 100 = 100% disease control
Outline: (§1)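 Plants received a run-off spray at 200 ppm (equivalent to 500 g/ha) or, for starred values, 40 ppm. Formulation used acetone at 3% of volume in a 50/50 acetone/water mix carrying 250 ppm Trem® 014.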

[3] = test system: Alternaria solani; test: Test D: tomato early blight, sprayed the day before inoculation, visual disease rating; conditions: 200 ppm, 100 = 100% disease control
Outline: as §1

[4] = test system: Rhizoctonia solani; test: Test B: turf brown patch on bentgrass seedlings, sprayed the day before inoculation, visual disease rating; conditions: 200 ppm, 100 = 100% disease control
Source text: General protocol for preparing test suspensions for Tests A-J: The test compounds were first dissolved in acetone in an amount equal to 3% of the final volume and then suspended at the desired concentration (in ppm) in acetone and purified water (50/50 mix) containing 250 ppm of the surfactant Trem® 014 (polyhydric alcohol esters). The resulting test suspensions were then used in tests A-J. Spraying a 200 ppm test suspension to the point of run-off on the test plants was the equivalent of a rate of 500 g/ha. […] The test suspension was sprayed to the point of run-off on bentgrass (Agrostis sp.) seedlings. […] A dash (-) indicates no test results. All results are for 200 ppm except where followed by “*”, which indicates 40 ppm.

[5] = test system: Erysiphe graminis f. sp. tritici; test: Test J: wheat powdery mildew on wheat seedlings, sprayed the day before inoculation, visual disease rating; conditions: 200 ppm, 100 = 100% disease control
Outline: as §1

[6] = test system: Septoria nodorum; test: Test F: wheat glume blotch on wheat seedlings, sprayed the day before inoculation, visual disease rating; conditions: 200 ppm, 100 = 100% disease control
Outline: as §1

[7] = test system: Septoria tritici; test: Test G: wheat leaf blotch on wheat seedlings, sprayed the day before inoculation, visual disease rating; conditions: 200 ppm, 100 = 100% disease control
Outline: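 Spray to run-off, 200 ppm (≈500 g/ha; starred = 40 ppm), acetone/water 50/50 + 250 ppm Trem® 014. Spore inoculation +1 d. 24° C saturated 48 h → 20° C 19 d. Visual rating.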

[8] = test system: Botrytis cinerea; test: Test C: tomato Botrytis on tomato seedlings, sprayed the day before inoculation, visual disease rating; conditions: 200 ppm, 100 = 100% disease control
Outline: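 Rate: 200 ppm sprayed to run-off, corresponding to 500 g/ha; flagged values used 40 ppm. Vehicle was aqueous acetone (1:1) plus 250 ppm surfactant, compounds predissolved in acetone at 3% of volume. Plants were tomato seedlings.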

[9] = test system: Plasmopara viticola; test: Test A: grape downy mildew, test suspension sprayed after inoculation of grape seedlings, visual disease rating; conditions: 200 ppm, 100 = 100% disease control
Source text: General protocol for preparing test suspensions for Tests A-J: The test compounds were first dissolved in acetone in an amount equal to 3% of the final volume and then suspended at the desired concentration (in ppm) in acetone and purified water (50/50 mix) containing 250 ppm of the surfactant Trem® 014 (polyhydric alcohol esters). The resulting test suspensions were then used in tests A-J. Spraying a 200 ppm test suspension to the point of run-off on the test plants was the equivalent of a rate of 500 g/ha. […] Grape seedlings were inoculated with a spore suspension of Plasmopara viticola (the causal agent of grape downy mildew) and incubated in a saturated atmosphere at 20° C. for 24 h. After a short drying period, the grape seedlings were sprayed with the test suspension to the point of run-off and then moved to a growth chamber at 20° C. for 5 days, after which time the grape seedlings were placed back into a saturated atmosphere at 20° C. for 24 h. Upon removal, visual disease ratings were made. […] A dash (-) indicates no test results.

[10] = test system: Puccinia recondita f. sp. tritici; test: Test H: wheat leaf rust, test suspension sprayed after inoculation of wheat seedlings, visual disease rating; conditions: 200 ppm; 100 = 100% disease control, 0 = no control relative to controls
Outline: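 Wheat seedlings inoculated with P. recondita spores, held 24 h saturated at 20 °C, then 2 days in growth chamber at 20 °C; compound suspension (acetone/water with Trem 014) sprayed to run-off afterwards. Rated visually; 200 ppm (≈500 g/ha) unless marked *, which denotes 40 ppm.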

[11] = 0 = no control relative to controls

Compound | Test E disease control rating [1, 11] | Test I disease control rating [2, 11] | Test D disease control rating [3, 11] | Test B disease control rating [4, 11] | Test J disease control rating [5, 11] | Test F disease control rating [6, 11] | Test G disease control rating [7, 11] | Test C disease control rating [8, 11] | Test A disease control rating [9, 11] | Test I disease control rating ([2]; 0 = no control) | Test D disease control rating ([3]; 0 = no control) | Test B disease control rating ([4]; 0 = no control) | Test J disease control rating ([5]; 0 = no control) | Test F disease control rating ([6]; 0 = no control) | Test G disease control rating ([7]; 0 = no control) | Test C disease control rating ([8]; 0 = no control) | other results
COc1cc(F)c(-c2c(C)nn(C)c2-c2ccc(Cl)c(F)c2)c(F)c1 [compound 115] | 0% | 98% | 99% | 99% | 100% | 98% | 99% | 99% | – | – | – | – | – | – | – | – | –
2-bromo-1-(4-chlorophenyl)-5-(2,6-difluorophenyl)-2-methyl-1H-imidazole [Compound 740] | 0% | 100% | 100% | 99% | 100% | 100% | 100% | 100% | 37% | – | – | – | – | – | – | – | –
COc1cc(F)c(-c2c(-c3ccc(Cl)cc3)c(OC)nn2C)c(F)c1 [compound 578] | 0% | 74% | 37% | 58% | 98% | 0% | 100% | 98% | 0% | – | – | – | – | – | – | – | –
Cc1ccc(-n2cnc(Cl)c2-c2c(F)cccc2Cl)cc1 [compound 181] | – | – | – | – | – | – | – | – | – | 98% | 0% | 24% | 99% | 0% | 94% | 99% | –
Cc1nn(C)c(-c2ccc(Cl)c(F)c2)c1-c1c(F)cc(F)cc1F [compound 104] | 0% | 0% | 98% | 0% | 95% | 0% | 32% | 92% | – | – | – | – | – | – | – | – | –
Fc1ccc(-c2c(Cl)ncn2-c2ccc(Cl)c(F)c2)c(Cl)c1 [compound 191] | – | – | – | – | – | – | – | – | – | 80% | 26% | 0% | 93% | 0% | 97% | 99% | Test E disease control rating ([1]; 0 = no control): 29%; Test A disease control rating ([9]; 0 = no control): 0%
Cc1ccc(-n2cnc(Cl)c2-c2ccc(F)cc2Cl)cc1 [compound 179] | – | – | – | – | – | – | – | – | – | 99% | 9% | 0% | 99% | 0% | 98% | 99% | Test E disease control rating ([1]; 0 = no control): 0%; Test A disease control rating ([9]; 0 = no control): 0%
Fc1ccc(-n2cnc(Cl)c2-c2ccc(F)cc2Cl)cc1 [compound 178] | – | – | – | – | – | – | – | – | – | 74% | 99% | 0% | 100% | 0% | 100% | 99% | Test A disease control rating ([9]; 0 = no control): 9%
COc1ccc(-c2c(OC)nn(C)c2-c2c(F)cc(OC)cc2F)cc1 [compound 580] | 0% | 84% | 0% | 88% | 90% | 0% | 100% | 98% | 0% | – | – | – | – | – | – | – | –
Fc1cc(-n2cnc(Cl)c2-c2c(F)cccc2Cl)ccc1Cl [compound 192] | – | – | – | – | – | – | – | – | – | 84% | 16% | 21% | 99% | 0% | 94% | 99% | Test E disease control rating ([1]; 0 = no control): 0%; Test A disease control rating ([9]; 0 = no control): 0%
COc1cc(F)c(-c2c(-c3ccc(F)cc3)c(OC)nn2C)c(F)c1 [compound 579] | 0% | 93% | 97% | 92% | 100% | 0% | 100% | 99% | 0% | – | – | – | – | – | – | – | –
Cc1nn(C)c(-c2ccc(Cl)c(F)c2)c1-c1c(F)cccc1F [compound 67] | 0% | 0% | 99% | 98% | 99% | 0% | 80% | 44% | 7% | – | – | – | – | – | – | – | –
COc1cc(F)c(-c2c(C)nn(C)c2-c2ccc(Cl)c(OC)c2)c(F)c1 [compound 111] | 0% | 89% | 99% | 81% | 99% | 100% | 100% | 99% | – | – | – | – | – | – | – | – | –
Cc1ncc(-c2ccc(F)cc2)n1-c1ccc(Cl)cc1 [Compound 4, 1-(4-chlorophenyl)-5-(4-fluorophenyl)-2-methyl-1H-imidazole] | 0% | – | – | 18% | – | – | – | – | 0% | – | – | – | – | – | – | – | pest or weed control at 200 ppm ([2]; Puccinia recondita, 168 h, 0 = no control relative to controls): 79%; pest or weed control at 200 ppm ([3]; Alternaria solani, 168 h, 0 = no control relative to controls): 0%; pest or weed control at 200 ppm ([5]; Blumeria graminis, 168 h, 0 = no control relative to controls): 94%; pest or weed control at 200 ppm ([6]; Parastagonospora nodorum, 264 h, 0 = no control relative to controls): 0%; pest or weed control at 200 ppm ([7]; Zymoseptoria tritici, 504 h, 0 = no control relative to controls): 93%; pest or weed control at 200 ppm ([8]; Botrytis cinerea, 120 h, 0 = no control relative to controls): 67%
Fc1ccc(-n2cnc(Cl)c2-c2c(F)cccc2Cl)cc1 [compound 180] | – | – | – | – | – | – | – | – | – | 99% | 99% | 88% | 100% | 0% | 98% | 99% | Test A disease control rating ([9]; 0 = no control): 0%
Cc1cc(C)nc(-c2cnnn2-c2cc(Cl)cc(Cl)c2)n1 [compound 644] | 0% | 0% | 0% | – | 0% | 0% | 0% | 94% | 0% | – | – | – | – | – | – | – | –
COc1cc(F)c(-c2c(Cl)nc(C)n2Cc2ccc(C)nc2)c(F)c1 [compound 671] | – | 78% | 100% | – | 0% | 92% | 95% | 99% | – | – | – | – | – | – | – | – | Test H disease control rating [10]: 17%
Cc1nc(Br)c(-c2ccc(Cl)c(F)c2)n1-c1ccc(F)cc1Cl [compound 340] | – | 94% | 98% | – | 95% | 0% | 92% | 99% | – | – | – | – | – | – | – | – | Test H disease control rating [10]: 0%
